Experimental data published in patent publication US8809389B2, “Substituted alkynyl phenoxy compounds as new synergists in pesticidal compositions” (Endura S.p.A., priority 2009, dated 2014).

Assays:
[1] = tested on: Myzus persicae; test: Topical application bioassay on aphid clones: imidacloprid with or without synergist pre-treatment; conditions: aphid clone 5191A
Description: Aphid clones were reared on Chinese cabbage (Brassica rapa L. var. Pekinensis c.v Wong Bok) (Brassicaceae) leaves held in small plastic box-cages maintained at 18±2° C. with a 16:8 h light:dark photoperiod (Blackman R L, Variation in the photoperiodic response within natural populations of Myzus persicae (Sulzer). Bull Ent Res 60: 533-546 (1971)).
Clone 4106A is a laboratory insecticide-susceptible standard2 . […] Both aphid clones have been established from single parthenogenetic M. persicae females (Foster S P, Denholm I, Thompson R, Poppy G M, Powell W, Reduced response of insecticide-resistant aphids and attraction of parasitoids to alarm pheromone; a potential fitness trade-off. Bull Ent Res 95: 37-46 (2005)).
12.1.2 Topical Application Bioassay with 5191A Aphid Clone Young apterae were transferred to the abaxial surface of Chinese cabbage leaf discs (10 adults per leaf disc, at least 3 replicates per concentration) held on 1% agar in plastic containers (4 cm in diameter). The upper edge of each container was coated with Fluon (Whitford Plastics, UK) to prevent subsequent aphid escape from the leaf surface. After allowing 2 h for the aphids to settle, each was dosed with 0.25 μl of either 1 g L^−1 Compound of Example 3 dissolved in acetone or acetone only. After 4 h aphids were further treated with 0.25 μl imidacloprid in acetone (96% AR) using a
Burkard microapplicator (Burkard, Rickmansworth, UK). Controls were treated with acetone only. Treated aphids were stored at 18±2° C. and 16 h light: 8 h dark photoperiod. All bioassays were scored at the endpoint of 72 h after treatment. Adults incapable of co-ordinated movement (after gentle touching with a paint brush if necessary) were scored as dead. All bioassays were completed in triplicate.

[2] = tested on: P450 enzymes (oxidases) of pollen beetle homogenate; test: Oxidase assay: 7-ethoxycoumarin O-deethylation inhibition in pollen beetle homogenate; type: biochemical, Meligethes aeneus; conditions: 3 μl of 10 mM compound, enzyme plus acetone = 100
Description: The ability of the novel compositions comprising the synergists of Formula (I) to inhibit P450 enzymes, a major mechanism conferring resistance to xenobiotics, was measured using pollen beetle homogenate.
Approximately 50 non-sexed adult pollen beetle from each population were homogenised on ice in 1 ml 0.1 M sodium phosphate buffer, pH 7.6, containing, 1 mM EDTA, 1 mM DTT, 1 mM PTU, 1 mM PMSF and centrifuged at 10 000×g for 10 min. The resulting supernatant was used as the enzyme source.
The O-deethylation inhibition by compounds of Example 2 or 3 was measured using 7-ethoxycoumarin (7-EC) according to Ullrich and Weber (Ullrich V and Weber P, The O-dealkylation of 7-ethoxycoumarin by liver microsomes. Z Physiol Chem 353: 1171-1177 (1972)) and adapted to the microplate format as described by DeSousa (De Sousa G, Cuany A, Brun A, Amichot M, Rahmani R, Berge J B, A microfluorometric method for measuring ethoxycoumarin-O-deethylase activity on individual Drosophila melanogaster abdomens: interest for screening resistance in insect populations Analyt. Biochem 229: 86-91 (1995)). Briefly, 7-EC was dissolved in ethanol to make a 20 mM stock solution and diluted by the addition of 0.1 M, pH 7.8 sodium phosphate buffer to give a concentration of 0.5 mM. Fifty microliters of pollen beetle enzyme were added to separate wells of a microplate, followed by the addition of 3 μl 10 mM of either compounds of Example 2 or 3 or acetone only. After 10 min incubation in room temperature, 80 μl 0.5 mM 7-EC was added following by another 5 min at 30° C. The reaction initiated by the addition of 10 μl 9.6 mM NADPH in 0.1 M sodium phosphate, pH 7.8. Enzyme activity was measured in a Victor^2 1420 multilabel counter (Wallac, Milton Keynes, UK) for 60 min with readings taken every 5 min, using an excitation wavelength of 370 nm and an emission wavelength of 460 nm. All assays were performed in triplicate.
The ability of the composition comprising the compounds of Examples 2 and 3 to inhibit oxidases derived from the 3 different pollen beetle populations is presented in Table 7.

CC#CCOc1cc2c(cc1CCC)OCO2 [Example 3, 5-(but-2-ynyloxy)-6-propyl-benzo[1.3]dioxole]
LC50 of imidacloprid after pre-treatment with the synergist ([1]; FE4(R3), 0.25 μl of 1 g L^−1 synergist 4 h before imidacloprid, scored 72 h): 1.25 ppm
SF, synergism factor (LC50 unsynergised / LC50 synergised) ([1]; imidacloprid plus 1 g L^−1 synergist pre-treatment): 72.4
Inhibition of 7-ethoxycoumarin O-deethylation (%) ([2]; Lebork homogenate): −2.24%
Inhibition of 7-ethoxycoumarin O-deethylation (%) ([2]; Rogalin homogenate): 27.6%
Inhibition of 7-ethoxycoumarin O-deethylation (%) ([2]; UK population homogenate): 10.4%
